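Following 48 hours of exposure in 96-well plates, responses at five concentrations were used to interpolate endpoints linearly. At the GI50, growth is halved. Definition used: TGI = concentration required for complete inhibition of growth.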
Tests used:
Experiment in all cases: inhibition of tumour cell growth, NCI panel, 48 h
[1] = test system: SK-MEL-28 melanoma
[2] = test system: ACHN renal
[3] = test system: MALME-3M melanoma
[4] = test system: RPMI-8226 leukemia
[5] = test system: IGROV1 ovarian
[6] = test system: U251 CNS
[7] = test system: NCI-H23 lung
[8] = test system: SW-620 colon
[9] = test system: KM12 colon
[10] = test system: MDA-MB-231 breast

Structure (SMILES) | TGI [1] | TGI [2] | TGI [3] | TGI [4] | TGI [5] | TGI [6] | TGI [7] | TGI [8] | TGI [9] | GI50 [1] | GI50 [2] | GI50 [4] | GI50 [5] | GI50 [6] | GI50 [10] | TGI [10] | GI50 [7] | GI50 [8] | GI50 [9] | GI50 [3]
CCOP(=O)(OCC)/C(C#N)=C/c1ccco1 | > 100 µM | > 100 µM | > 100 µM | > 100 µM | > 100 µM | > 100 µM | > 100 µM | > 100 µM | > 100 µM | – | – | – | – | – | – | – | – | – | – | –
CCOC(=O)c1ccc(N2C(=O)/C(=C\OC)c3ccccc3C2=O)cc1 | > 100 µM | > 100 µM | > 100 µM | > 100 µM | > 100 µM | > 100 µM | > 100 µM | > 100 µM | > 100 µM | – | – | – | – | – | – | – | – | – | – | –
CC1NOC(=O)C1N=Nc1ccccc1Cl (stereo not drawn) | > 100 µM | > 100 µM | 65.7 µM | 54.7 µM | > 100 µM | > 100 µM | > 100 µM | > 100 µM | > 100 µM | – | – | – | – | – | – | – | – | – | – | –
CC(=O)/C=C/c1ccc(C2CC(C)=Nc3c(ccc4c3C(=O)c3ccccc3C4=O)N2)cc1 (stereo not drawn) | > 100 µM | > 100 µM | > 100 µM | > 100 µM | > 100 µM | > 100 µM | > 100 µM | > 100 µM | > 23.6 µM | – | – | – | – | – | – | – | – | – | – | –
CS(=O)c1ccc(COP(N)(=O)N(CCCl)CCCl)cc1 (stereo not drawn) | > 100 µM | > 100 µM | > 100 µM | > 100 µM | > 100 µM | > 100 µM | > 100 µM | > 100 µM | > 100 µM | – | – | – | – | – | – | – | – | – | – | –
CCSc1nc(N=Cc2cccs2)c2cn[nH]c2n1 | > 100 µM | > 100 µM | – | > 100 µM | > 100 µM | > 100 µM | 23.2 µM | > 100 µM | 16.1 µM | 22.3 µM | 16.2 µM | 3.19 µM | 23.6 µM | 69.4 µM | 4.51 µM | > 100 µM | 11.2 µM | 19.7 µM | 3.31 µM | –
ON=C1CCC(c2ccccc2)CC1 (stereo not drawn) | > 100 µM | > 100 µM | > 100 µM | – | > 100 µM | > 100 µM | > 100 µM | > 100 µM | > 100 µM | – | – | – | – | – | – | – | – | – | – | –
COC(=O)c1nc(NC#N)[nH]c(=O)c1C | > 100 µM | > 100 µM | > 100 µM | > 100 µM | > 100 µM | > 100 µM | > 100 µM | > 100 µM | > 100 µM | – | – | – | – | – | – | – | – | – | – | –
CCOC(=O)C1C(=O)c2ccccc2CN1Cc1ccccc1 (stereo not drawn) | > 100 µM | > 100 µM | > 100 µM | > 100 µM | > 100 µM | > 100 µM | > 100 µM | > 100 µM | > 100 µM | – | – | – | – | – | – | – | – | – | – | –
COc1ccc(/C=C2/C[N+](C)(C)C/C(=C/c3ccc(OC)cc3)C2=O)cc1 | 18.6 µM | > 100 µM | 61.3 µM | 31.1 µM | 64.7 µM | > 63.9 µM | > 100 µM | > 100 µM | 36.3 µM | – | – | – | – | – | – | – | – | – | – | –
O=C(c1ccccc1)c1c(C(=O)c2ccccc2)c(-c2ccccc2)c2c(-c3ccccc3)sc(-c3ccccc3)c2c1-c1ccccc1 | > 100 µM | > 100 µM | > 100 µM | > 100 µM | > 100 µM | > 100 µM | > 100 µM | > 100 µM | > 100 µM | – | – | – | – | – | – | – | – | – | – | –
O=c1cc2ccccc2nn1-c1ccccc1Cl | > 100 µM | > 100 µM | > 100 µM | > 100 µM | > 100 µM | > 100 µM | > 100 µM | > 100 µM | > 100 µM | – | – | – | – | – | – | – | – | – | – | –
CC[N+](CC)(CC)CCCn1c2c(c3ccccc3c1=O)C(=O)c1ccccc1-2 | > 100 µM | 26.8 µM | – | > 100 µM | 24.1 µM | > 100 µM | 6.42 µM | > 100 µM | > 100 µM | 29.2 µM | 3.07 µM | 5.2 µM | 3.1 µM | 4.77 µM | 17.6 µM | 84.2 µM | 2.31 µM | 4.24 µM | 4.74 µM | –
O=C([CH-]C(=O)c1ccccc1)c1ccccc1.O=C([CH-]C(=O)c1ccccc1)c1ccccc1.[Nd+3].[OH-].[OH3+] | 44.8 µM | 30.1 µM | 53.2 µM | – | 61.2 µM | 40.3 µM | 18.6 µM | 39.8 µM | 49.6 µM | 11.5 µM | 10.1 µM | 6.04 µM | 11.5 µM | 7.13 µM | – | – | 3.91 µM | 6.89 µM | 6.27 µM | 12.4 µM
C=C(CN1CCc2ccccc2C1)c1ccc(C(=O)Nc2ccc(N)cc2)cc1 | 72.5 µM | > 100 µM | 61 µM | 19 µM | – | > 100 µM | > 100 µM | > 100 µM | 48.4 µM | 24.9 µM | 30 µM | 2.5 µM | – | 28.2 µM | 20.5 µM | > 100 µM | 17.4 µM | 30.5 µM | 20.4 µM | 18.3 µM
COC(=O)c1ccc(N=NN(C)CO)cc1 | > 100 µM | > 100 µM | > 100 µM | > 100 µM | > 100 µM | > 100 µM | > 100 µM | > 100 µM | > 100 µM | – | – | – | – | – | – | – | – | – | – | –
C=C1CC[C@@H]2C(C)(C)CCC[C@@]2(C)[C@@H]1Cc1cc(O)ccc1O | 9.83 µM | 11.8 µM | 17.4 µM | 15.9 µM | 5.65 µM | 14.5 µM | 18.7 µM | 23.8 µM | 19.2 µM | – | – | – | – | – | – | – | – | – | – | –
CCOC(=O)C(=O)Nc1c(N(CC)CC)n2ccccc2nc1=O | – | > 100 µM | > 100 µM | > 100 µM | > 100 µM | > 100 µM | > 100 µM | > 100 µM | > 100 µM | – | – | – | – | – | – | – | – | – | – | –
O=C(O)c1cc2c(cn1)[nH]c1ccccc12 | > 100 µM | > 100 µM | > 100 µM | > 100 µM | > 100 µM | > 100 µM | > 100 µM | > 100 µM | > 100 µM | – | – | – | – | – | – | – | – | – | – | –
COc1ccc2ccc([Se]c3ccc4ccc(OC)cc4c3)cc2c1 | > 100 µM | > 100 µM | > 100 µM | > 100 µM | > 100 µM | 99.2 µM | > 100 µM | > 100 µM | > 100 µM | – | – | – | – | – | – | – | – | – | – | –

Reference: PubChem BioAssay (NCI)
